Reference: publication PMC5106290 (Bioorganic & medicinal chemistry, 2014)
Like-named read-outs stand apart in the source and are kept apart here.

Assays:
[1] = tested on: L. i. chagasi; type: in vivo, Leishmania infantum chagasi; settings: infected BALB/c mice
[2] = tested on: RAW 264.7 cells; type: cell-based, murine; settings: Table 1 and text, 48 h, MTT
[3] = tested on: promastigote of Leishmania amazonensis; settings: ref Medeiros et al. 21; cited from earlier work
[4] = 100 mg/kg IP once a day for 30 days
[5] = Glucantime 80 mg/Kg intra muscular once a day for 30 days

Molecule: C=CCc1ccc(OC(C)=O)c(OC)c1 [Acetyl-Eugenol, O-acetyl-eugenol]
- Presence of amastigotes in spleen (immunohistochemistry, qualitative) [1, 4]: could not be visualized

Molecule: CC(=O)Oc1cc(C)ccc1C(C)C [Acetyl-Thymol, O-acetyl-thymol]
- Toxicity % RAW 264.7 cells survival at 100 μg/mL (±SD) [2]: not toxic
- Amount of amastigotes seen in spleen stain [1, 4]: regular amount of parasites

Molecule: C=CCc1ccc(OC(=O)c2ccccc2)c(OC)c1 [Benzoyl-Eugenol, O-benzoyl-eugenol]
- Presence of amastigotes in spleen (immunohistochemistry, qualitative) [1, 4]: could not be visualized

Molecule: Cc1ccc(C(C)C)c(OC(=O)c2ccccc2)c1 [Benzoyl-Thymol, O-benzoyl-thymol]
- Presence of amastigotes in spleen (immunohistochemistry, qualitative) [1, 4]: could not be visualized

Molecule: Cc1ccc(C(C)C)c(O)c1 [Thymol]
- EC50 against promastigote of Leishmania amazonensis [3]: 19.4 µg/mL

Molecule: antimoniate N-methyl glucamine [Glucantime, reference compound]
- Amount of amastigotes seen in spleen stain [1, 5]: only a few amastigotes
- Presence of amastigotes in spleen (immunohistochemistry, qualitative) [1, 5]: visible
